In US20250019352A1, “PHARMACOLOGICAL AGENTS FOR TREATING OPHTHALMIC DISEASES” (Plex Pharmaceuticals, Inc., priority 2021, published 2025):

Tests used:
[1] = biological target: T1, recombinant human hAAC (human αA-crystallin) (Homo sapiens, UniProt P02489); experiment: Protection from Ca+2 and UVC induced aggregation of recombinant human alpha-A crystallin (absorbance / SDS-PAGE); format: biochemical; details: for Gel: SDS-PAGE, unaggregated AAC after UVC, compounds tested at 500 μM; for EC50: concentration needed to prevent 50% of hAAC from forming HMW aggregates when exposed to UVC in presence of Ca+2, calculated using SDS-PAGE, read-out: EC50 Biochemical
T1 sequence (P02489 1-173): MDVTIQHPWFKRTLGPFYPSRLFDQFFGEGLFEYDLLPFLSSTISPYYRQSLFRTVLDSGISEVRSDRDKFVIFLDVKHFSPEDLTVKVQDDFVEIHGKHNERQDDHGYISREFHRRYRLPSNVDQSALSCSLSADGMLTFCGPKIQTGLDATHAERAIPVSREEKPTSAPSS
Experimental: FIG. 2A: SDS-PAGE showing the protection against UVC induced aggregation of human α-A-crystallin (hAAC) by disulfide and related SDMs. Shown are also efficacy of non-related SDMs. The compounds were tested at 500 μM concentration.
The potency of compounds to provide protection from Ca^+2 and UVC induced aggregation of alpha-A crystalline (ACC) was measured by monitoring the effect of Ca^+2 and UVC on recombinant human hAAC. hAAC forms HMW aggregates when exposed to UVC radiation in the presence of 10 mM Ca^+2. The aggregates lead to increased absorbance. Stock compound solutions (made in DMSO) were added to recombinant hAAC (100 ug/ml) at desired concentrations. The hAAC, with the added compound, was incubated at room temperature for 1 hour, followed by addition of 10 μl of 200 mM CaCl2) and further incubation for 5 minutes. Then, absorbance was recorded at 400 nm (T=0 Minute) followed by exposure to UVC (254 nm, 480 mJ/cm^2 per minute). Absorbance was measured again at 15 and 30 minutes. To control for compound related effects, assays were performed with or without AAC in triplicate. Percent protection or change in fold-decrease in aggregation were computed using the measured differences in absorbance. DMSO was used as control. EC50 values were calculated using the SDS-PAGE, which is defined as the concentration of SMD needed to prevent 50% of hAAC from forming HMW aggregates when exposed to UVC in presence of Ca^+2 [FIGS. 2A-2B].

[2] = system: porcine lenses; experiment: Ex vivo lens culture: protection from UV-induced opacification; details: porcine lenses cultured ex vivo
From the text: To predict whether SMDs could prevent opacification in animal models and ultimately in human patients, we assessed their ability to protect intact lenses cultured ex vivo from UV-induced opacification. As fresh human lenses are difficult to obtain, porcine lenses were used for the ex vivo studies. Porcine lenses are easy to acquire (Sierra for Medical Science, Inc., Whittier, CA) and have been used previously in ex vivo models of Presbyopia. As predicted by our biochemical assays, SMDs prevents UV-induced opacification of porcine lenses ex vivo.

| Compound | Gel [1] | EC50 [1] [µM] | Ex-vivo [2] |
| --- | --- | --- | --- |
| O=C(NCCOc1ccccc1)SSC(=O)NCCOc1ccccc1 [Compound 45] | + (″+″ score = >20% to 50% unaggregated AAC) | – | – |
| Cc1cc(N2CCSSCC2)ncc1[N+](=O)[O-] [Compound 34] | ++ (″++″ score = >50% unaggregated AAC) | – | – |
| CC(C)Cc1ccccc1NC(=O)CSSCC(=O)Nc1ccccc1CC(C)C [Compound 51] | ++ (″++″ score = >50% unaggregated AAC) | – | – |
| Cc1nn(CCC(=O)N2CCSSCC2)c(C)c1[N+](=O)[O-] [Compound 38] | + (″+″ score = >20% to 50% unaggregated AAC) | – | – |
| O=C(O)Cc1ccc(S(=O)(=O)N2CCOCC2)s1 [Compound 30] | ++ (″++″ score = >50% unaggregated AAC) | – | – |
| O=C(O)c1cc(SSc2ccc([N+](=O)[O-])c(C(=O)O)c2)ccc1[N+](=O)[O-] [Compound 13] | ++ (″++″ score = >50% unaggregated AAC) | 191 | ++ (″++″ score = >50% unaggregated AAC) |
| COC(=O)c1ccccc1SSc1ccccc1C(=O)OC [Compound 21] | + (″+″ score = >20% to 50% unaggregated AAC) | – | – |
| O=C(CSSCC(=O)Nc1cccc([N+](=O)[O-])c1)Nc1cccc([N+](=O)[O-])c1 [Compound 40] | + (″+″ score = >20% to 50% unaggregated AAC) | 365 | – |
| CN/C(=C\[N+](=O)[O-])NCCSCc1c[nH]c(CN(C)C)n1 [Compound 11] | ++ (″++″ score = >50% unaggregated AAC) | 495 | ++ (″++″ score = >50% unaggregated AAC) |
| O=C(O)c1cccc(S(=O)(=O)NC2CC2)c1 [Compound 25] | + (″+″ score = >20% to 50% unaggregated AAC) | – | ++ (″++″ score = >50% unaggregated AAC) |
| O=C(O)CCNS(=O)(=O)c1ccc(F)cc1 [Compound 23] | + (″+″ score = >20% to 50% unaggregated AAC) | – | – |
| Nc1ccc(SSc2ccc(N)cc2)cc1 [Compound 2] | ++ (″++″ score = >50% unaggregated AAC) | – | – |
| N#Cc1cc(C(=O)O)c(O)nc1SSc1nc(O)c(C(=O)O)cc1C#N [Compound 50] | + (″+″ score = >20% to 50% unaggregated AAC) | – | – |
| COc1ccc(SSc2ccc(OC)cc2)cc1 [Compound 15] | + (″+″ score = >20% to 50% unaggregated AAC) | – | – |
| O=C(O)c1nsnc1NCCSSCCNc1nsnc1C(=O)O [Compound 42] | + (″+″ score = >20% to 50% unaggregated AAC) | – | – |
| O=[N+]([O-])c1cc(C(F)(F)F)ccc1SSc1ccc(C(F)(F)F)cc1[N+](=O)[O-] [Compound 14] | + (″+″ score = >20% to 50% unaggregated AAC) | – | – |
| O=C(CSSCC(=O)Nc1ccc2ccccc2c1)Nc1ccc2ccccc2c1 [Compound 44] | ++ (″++″ score = >50% unaggregated AAC) | – | – |
| CC(=O)Nc1ccc(SSc2ccc(NC(C)=O)cc2)cc1 [Compound 16] | + (″+″ score = >20% to 50% unaggregated AAC) | – | – |
| CC(C)NS(=O)(=O)c1cccc(C(=O)O)c1 [Compound 24] | + (″+″ score = >20% to 50% unaggregated AAC) | – | ++ (″++″ score = >50% unaggregated AAC) |
| Nc1nc(N2CCSSCC2)ncc1[N+](=O)[O-] [Compound 36] | + (″+″ score = >20% to 50% unaggregated AAC) | – | – |

| Compound | Gel [1] | EC50 [1] [µM] | Ex-vivo [2] |
| --- | --- | --- | --- |
| Nc1cccc(SSc2cccc(N)c2)c1 [Compound 5] | ++ (″++″ score = >50% unaggregated AAC) | – | – |
| O=C(O)c1cccc(S(=O)(=O)N2CCOCC2)c1 [Compound 29] | + (″+″ score = >20% to 50% unaggregated AAC) | – | – |
| Cc1ccc(NC(=O)C(C)SSC(C)C(=O)Nc2ccc(C)c(F)c2)cc1F (centres unmarked) [Compound 41] | + (″+″ score = >20% to 50% unaggregated AAC) | – | – |
| Cc1ncc(CSSCc2cnc(C)c(O)c2CO)c(CO)c1O [Compound 46] | + (″+″ score = >20% to 50% unaggregated AAC) | – | – |
| CN=C(NC#N)NCCSCc1csc(N=C(C)C)n1 [Compound 32] | ++ (″++″ score = >50% unaggregated AAC) | 410 | – |
| O=C(O)c1ccc(SSc2ccc(C(=O)O)cc2)cc1 [Compound 1] | ++ (″++″ score = >50% unaggregated AAC) | – | – |
| O=C(O)CCC(=O)Nc1ccc(SSc2ccc(NC(=O)CCC(=O)O)cc2)cc1 [Compound 43] | ++ (″++″ score = >50% unaggregated AAC) | – | – |
| CNC(C[N+](=O)[O-])NCCSCc1ccc(CN(C)C)o1.Cl (centres unmarked) [Compound 31] | + (″+″ score = >20% to 50% unaggregated AAC) | – | – |
| O=C(O)c1cccc(S(=O)(=O)N2CCCCC2)c1 [Compound 28] | + (″+″ score = >20% to 50% unaggregated AAC) | – | – |
| O=[N+]([O-])c1cc(S(=O)(=O)C(F)(F)C(F)(F)F)ccc1SSc1ccc(S(=O)(=O)C(F)(F)C(F)(F)F)cc1[N+](=O)[O-] [Compound 18] | + (″+″ score = >20% to 50% unaggregated AAC) | – | – |
| CCCNS(=O)(=O)c1cccc(C(C)=O)c1 [Compound 22] | + (″+″ score = >20% to 50% unaggregated AAC) | – | – |
| COc1ccccc1NC(=O)CSSCC(=O)Nc1ccccc1OC [Compound 55] | ++ (″++″ score = >50% unaggregated AAC) | – | – |
| O=C(O)c1ccc(S(=O)(=O)N2CCCCC2)cc1 [Compound 27] | + (″+″ score = >20% to 50% unaggregated AAC) | – | – |
| O=C1NC(=O)c2cc(NC(=O)N3CCSSCC3)ccc21 [Compound 37] | ++ (″++″ score = >50% unaggregated AAC) | 370 | – |
| CCC1c2ccccc2-c2cc(NC(=O)CSSCC(=O)Nc3ccc4c(c3)c3ccccc3n4CC)ccc21 (centres unmarked) [Compound 54] | ++ (″++″ score = >50% unaggregated AAC) | – | – |
| O=C(CSSCC(=O)Nc1cccc2ccccc12)Nc1cccc2ccccc12 [Compound 48] | + (″+″ score = >20% to 50% unaggregated AAC) | – | – |
| Fc1ccccc1SSc1ccccc1F [Compound 7] | + (″+″ score = >20% to 50% unaggregated AAC) | – | – |
| Cc1ccnc(N2CCSSCC2)c1[N+](=O)[O-] [Compound 35] | ++ (″++″ score = >50% unaggregated AAC) | – | – |
| O=C(O)c1ccccc1SSc1ccccc1C(=O)O [Compound 4] | ++ (″++″ score = >50% unaggregated AAC) | 395 | – |
| O=C(O)c1cc(S(=O)(=O)N2CCCC2)ccc1O [Compound 26] | ++ (″++″ score = >50% unaggregated AAC) | – | – |
